Here are results for 4 molecules from US6784174B1, “Pyridine and pyrimidine derivatives and their use as inhibitors of cytokine mediated disease” (AstraZeneca AB, priority 1999, dated 2004).

This assay deals with T1, p38α (Homo sapiens, UniProt Q16539).
T1 construct: c-myc (N); 6His (N); made in house; host or cells: E. coli (PET vectors)
T1 sequence (Q16539 whole entry): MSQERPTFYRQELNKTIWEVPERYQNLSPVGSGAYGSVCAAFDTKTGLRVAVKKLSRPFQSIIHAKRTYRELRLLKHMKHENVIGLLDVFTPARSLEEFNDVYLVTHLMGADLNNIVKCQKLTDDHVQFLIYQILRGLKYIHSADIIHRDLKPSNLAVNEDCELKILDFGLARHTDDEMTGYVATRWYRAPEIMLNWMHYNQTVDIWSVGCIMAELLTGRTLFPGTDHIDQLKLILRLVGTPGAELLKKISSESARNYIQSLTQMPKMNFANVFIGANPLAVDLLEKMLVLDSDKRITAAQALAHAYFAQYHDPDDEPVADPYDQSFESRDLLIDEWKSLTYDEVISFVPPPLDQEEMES
Put plainly: In vitro enzyme assay, p38 kinase (p38α isoform). Type of assay: biochemical. As for the experimental part:
The ability of compounds of the invention to inhibit the enzyme p38 kinase was assessed. Activity of particular test compounds against each of the p38α and p38β isoforms of the enzyme was determined.
Human recombinant MKK6 (GenBank Accesion Number G1209672) was isolated from Image clone 45578 (Genomics, 1996, 33, 151) and utilised to produce protein in the form of a GST fusion protein in a pGEX vector using analogous procedures to those disclosed by J. Han et al., Journal of Biological Chemistry, 1996, 271, 2886-2891. p38α (GenBank Accession Number G529039) and p38β (GenBank Accession Number G1469305) were isolated by PCR amplification of human lymphoblastoid cDNA (GenBank Accession Number GM1416) and human foetal brain cDNA [synthesised from mRNA (Clontech, catalogue no. 6525-1) using a Gibco superscript cDNA synthesis kit] respectively using oligonucleotides designed for the 5′ and 3′ ends of the human p38α and p38β genes using analogous procedures to those described by J. Han et al., Biochimica et Biophysica Acta, 1995, 126, 224-227 and Y. Jiang et al., Journal of Biological Chemistry, 1996, 271, 17920-17926.
Both p38 protein isoforms were expressed in e coli in PET vectors. Human recombinant p38α and p38β isoforms were produced as 5′ c-myc, 6His tagged proteins. Both MKK6 and the p38 proteins were purified using standard protocols: the GST MKK6 was purified using a glutathione sepharose column and the p38 proteins were purified using nickel chelate columns.
The p38 enzymes were activated prior to use by incubation with MKK6 for 3 hours at 30° C. The unactivated coli-expressed MKK6 retained sufficient activity to fully activate both isoforms of p38. The activation incubate comprised p38α (10 μl of 10 mg/ml) or p38β (10 μl of 5 mg/ml) together with MKK6 (10 μl of 1 mg/ml), ‘Kinase buffer’ [100 μl; pH 7.4 buffer comprising Tris (50 mM), EGTA (0.1 mM), sodium orthovanadate (0.1 mM) and β-mercaptoethanol (0.1%)] and MgATP (30 μl of 50 mM Mg(OCOCH3)2 and 0.5 mM ATP). This produced enough activated p38 enzyme for 3 Microtiter plates.
Test compounds were solubilised in DMSO and 10 μl of a 1:10 diluted sample in ‘Kinase Buffer’ was added to a well in a Microtiter plate. […] The precipitated protein was phosphorylated by p38 kinase and test compounds were assessed for their ability to inhibit this phosphorylation. The plates were filtered using a Canberra Packard Unifilter and washed with 2% TCA, dried overnight and counted on a Top Count scintillation counter.
Test compounds were tested initially at a single dose and active compounds were retested to allow IC50 values to be determined.
For the molecule `Cc1ccc(NC(=O)c2ccnc(N3CCOCC3)c2)cc1Nc1ncnc2ccsc12` [Example 1, 4-[2-Methyl-5-(2-morpholinopyridine-4-carboxamido)anilino]thieno[3,2-d]pyrimidine], the IC50 came out at 60 nM.
`Cc1ccc(NC(=O)c2ccnc(N3CCOCC3)c2)cc1Nc1ncnc2scc(C)c12` [Example 2, 4-[2-Methyl-5-(2-morpholinopyridine-4-carboxamido)anilino]-5-methylthieno[2,3-d]pyrimidine]: the IC50 was determined as 340 nM. This IC50 is about 5.7-fold higher than that of the molecule before.
In turn, `Cc1ccc(NC(=O)c2ccnc(N3CCOCC3)c2)cc1Nc1ncnc2c(C)csc12` [3(1)] returned a half-maximal inhibitory concentration (IC50) of 40 nM.
In turn, `Cc1ccc(NC(=O)c2ccnc(N3CCOCC3)c2)cc1Nc1ncnc2sccc12` [3(2)] yielded an IC50 of 70 nM. This IC50 is about 1.8-fold higher than that of the molecule before.
